Laboratory results taken from PubChem BioAssay AID652215 (Vanderbilt Specialized Chemistry Center, 2013).
Calls of active or inactive are those of the source.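 Rule for the calls: active = activity score of 50 or more, meaning choline uptake cut by at least half versus untreated control; inactive = the rest.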

Biological target: High affinity choline transporter 1 (Homo sapiens) (UniProt Q9GZV3)
Assay: CHT inhibition at low and high choline, SAR follow-up, mechanism study for choline transporter inhibitor project, cell-based, HEK-293 hCHT LV-AA, [3H]-choline (AID 652215)
Conditions: [3H]-choline uptake, 15 min, at 5 µM, stronger effect = lower value; for activity remaining, high choline: measured here: 10 uM choline uptake

High affinity choline transporter 1 (Homo sapiens), sequence (Q9GZV3 whole entry, looked up): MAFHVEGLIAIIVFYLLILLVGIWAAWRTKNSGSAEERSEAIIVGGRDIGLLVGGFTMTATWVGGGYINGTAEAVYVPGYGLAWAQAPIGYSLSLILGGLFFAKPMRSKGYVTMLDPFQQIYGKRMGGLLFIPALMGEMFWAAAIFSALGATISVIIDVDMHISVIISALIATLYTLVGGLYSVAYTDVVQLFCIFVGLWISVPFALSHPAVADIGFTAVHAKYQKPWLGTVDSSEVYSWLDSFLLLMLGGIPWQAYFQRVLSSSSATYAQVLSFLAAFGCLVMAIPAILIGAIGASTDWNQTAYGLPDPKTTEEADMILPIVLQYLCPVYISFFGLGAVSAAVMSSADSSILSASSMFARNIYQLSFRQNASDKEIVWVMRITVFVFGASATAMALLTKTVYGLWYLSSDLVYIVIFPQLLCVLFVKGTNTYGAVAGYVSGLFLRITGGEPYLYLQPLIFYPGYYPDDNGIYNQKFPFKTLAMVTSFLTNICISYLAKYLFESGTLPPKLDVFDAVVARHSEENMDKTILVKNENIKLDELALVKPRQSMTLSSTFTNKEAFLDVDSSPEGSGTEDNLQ

Row | activity remaining, low choline | activity remaining, high choline | Compound
1 | 86.4% (inactive) | 87.1% | CCOc1cc(C(=O)NCc2cc(CC)no2)ccc1OC
2 | 92.3% (inactive) | 62.3% | CCCCOc1cc(C(=O)NCc2cc(CC)no2)ccc1OC
3 | 15.9% | 58% | COc1ccc(C(=O)NCCc2c[nH]c3ccccc23)cc1OC1CCN(C(C)C)CC1
4 | 52.7% (inactive) | 83.6% | COc1ccc(CNC(=O)c2ccc(OC)c(OC3CCN(C(C)C)CC3)c2)cc1OC
5 | 32.9% | 64.8% | COc1ccc(C(=O)NCc2ccccc2C)cc1OC1CCN(C(C)C)CC1
6 | 22.7% | 38.2% | CCc1cc(CNC(=O)c2ccc(OC)c(OCCN3CCCCC3)c2)on1
7 | 92.3% (inactive) | 88.5% | CCc1cc(CNC(=O)c2ccc(OC)c(OC(=O)c3ccc(OC)c(O)c3)c2)on1
8 | 72.2% (inactive) | 78.8% | COc1ccc(C(=O)NC2CCCCC2)cc1OC1CCN(C(C)C)CC1
9 | 94.9% (inactive) | 92.7% | COc1ccc(C(=O)NCc2cc(C(C)C)no2)cc1OCC1CCC1
10 | 77.1% (inactive) | 57.9% | CCc1cc(CNC(=O)c2ccc(OC)c(OC(C)CN(C)C)c2)on1 (configuration not stated)
11 | 71.2% (inactive) | 82.8% | COc1ccc(C(=O)NCCc2ccncc2)cc1OC1CCN(C(C)C)CC1
12 | 52.4% (inactive) | 60.8% | COc1ccc(C(=O)NCCCn2ccnc2)cc1OC1CCN(C(C)C)CC1
13 | 93.9% (inactive) | 78.2% | CCOc1cc(C(=O)NCc2cc(C(C)C)no2)ccc1OC
14 | 33.1% | 57% | COc1ccc(C(=O)NCc2cnn(C)c2C)cc1OC1CCN(C(C)C)CC1
15 | 36.7% | 88.3% | COc1ccc(C(=O)NCCc2cnn(C)c2)cc1OC1CCN(C(C)C)CC1
16 | 34.1% | 72.1% | COc1ccc(C(=O)NC(C)c2nccs2)cc1OC1CCN(C(C)C)CC1 (configuration not stated)
17 | 87.2% (inactive) | 83% | COc1ccc(C(=O)NCc2cc(C(C)C)no2)cc1OCC1CCCCC1
18 | 90.8% (inactive) | 97.2% | COc1ccc(C(=O)NCc2cc(C(C)C)no2)cc1OCc1ccccc1
19 | 56.5% (inactive) | 67.1% | CCc1cc(CNC(=O)c2ccc(OC)c(OC3CCCN(C)C3)c2)on1 (configuration not stated)
20 | 90.2% (inactive) | 102% | CCc1cc(CNC(=O)c2ccc(OC)c(OCc3ccccn3)c2)on1
21 | 69.2% (inactive) | 78.9% | CCc1cc(CNC(=O)c2ccc(OC)c(OCCN3CCOCC3)c2)on1
22 | 93.7% (inactive) | 90.1% | CCc1cc(CNC(=O)c2ccc(OC)c(O)c2)on1
23 | 62.2% (inactive) | 94.7% | CCc1cc(CNC(=O)c2ccc(OC)c(OC3CCNCC3)c2)on1
24 | 94.5% (inactive) | 72% | CCc1cc(CNC(=O)c2ccc(OC)c(OCc3cccnc3)c2)on1
25 | 43.1% | 71.2% | COc1ccc(C(=O)NCC(C)Oc2cccnc2)cc1OC1CCN(C(C)C)CC1 (configuration not stated)
26 | 98% (inactive) | 99.4% | CCc1cc(CNC(=O)c2ccc(OC)c(OC3CCCC3)c2)on1

Row | activity remaining, low choline | activity remaining, high choline | Compound
27 | 29.7% | 101% | COc1ccc(C(=O)N[C@H]2CC[C@H](O)CC2)cc1OC1CCN(C(C)C)CC1
28 | 90% (inactive) | 107% | CCc1cc(CNC(=O)c2ccc(OC)c(OCc3ccccc3)c2)on1
29 | 80% (inactive) | 74.5% | COc1ccc(C(=O)NCC2CCOCC2)cc1OC1CCN(C(C)C)CC1
30 | 29.4% | 60.9% | COc1ccc(C(=O)NCc2cccc(C)c2)cc1OC1CCN(C(C)C)CC1
31 | 92.9% (inactive) | 71% | CCc1cc(CNC(=O)c2ccc(OC)c(OC3CCN(C(C)C)CC3)c2)on1
32 | 91.1% (inactive) | 70.2% | CCc1cc(CNC(=O)c2ccc(OC)c(OCC3CCC3)c2)on1
33 | 71.9% (inactive) | 67.1% | COc1ccc(C(=O)NCC2OCCc3ccccc32)cc1OC1CCN(C(C)C)CC1 (configuration not stated)
34 | 87.2% (inactive) | 100% | COc1ccc(C(=O)NCc2cc(C(C)C)no2)cc1OCc1ccccn1
35 | 67.3% (inactive) | 59.6% | COc1ccc(C(=O)NCc2cc(C(C)C)no2)cc1OCCCN(C)C
36 | 41.8% | 97.6% | COc1ccc(C(=O)NCCN2CCOC2=O)cc1OC1CCN(C(C)C)CC1
37 | 87.3% (inactive) | 95.5% | COc1ccc(C(=O)NCc2cc(C(C)C)no2)cc1OCc1cccnc1
38 | 89.1% (inactive) | 80.6% | CCc1cc(CNC(=O)c2ccc(OC)c(OCCOC)c2)on1
39 | 86.8% (inactive) | 84.5% | COCCOc1cc(C(=O)NCc2cc(C(C)C)no2)ccc1OC
40 | 59.3% (inactive) | 71.4% | CCc1cc(CNC(=O)c2ccc(OC)c(OCCN3CCCC3)c2)on1
41 | 13.1% | 73.4% | COc1ccc(C(=O)N[C@H]2CCCCNC2=O)cc1OC1CCN(C(C)C)CC1
42 | 7.98% | 56.4% | CCc1cc(CNC(=O)c2ccc(OC)c(OC3CCN(C)CC3)c2)on1
43 | 57.1% (inactive) | 73.9% | COc1ccc(C(=O)NC(C)c2cn(C)nc2C)cc1OC1CCN(C(C)C)CC1 (configuration not stated)
44 | 46% | 83.3% | COc1ccc(C(=O)NCc2ccon2)cc1OC1CCN(C(C)C)CC1
45 | 85.9% (inactive) | 83.8% | COc1ccc(C(=O)NCc2cc(C(C)C)no2)cc1OCc1ccncc1
46 | 89.4% (inactive) | 99.8% | COc1ccc(C(=O)NCc2cc(C(C)C)no2)cc1OC(C)C
47 | 85.6% (inactive) | 88.8% | CCCCOc1cc(C(=O)NCc2cc(C(C)C)no2)ccc1OC
48 | 80.3% (inactive) | 84.5% | COc1ccc(C(=O)NCCN2CCCCC2=O)cc1OC1CCN(C(C)C)CC1
49 | 9.91% | 66.3% | COc1ccc(C(=O)NCC[C@@H]2C[C@@H]3C=C[C@H]2C3)cc1OC1CCN(C(C)C)CC1
50 | 35.3% | 81% | COc1ccc(C(=O)NCc2ccc(Cl)s2)cc1OC1CCN(C(C)C)CC1
51 | 20.4% | 77.5% | COc1ccc(C(=O)NCCCn2cccn2)cc1OC1CCN(C(C)C)CC1
